Molecules are shown by their SMILES.

The target of one assay is T1, acyl-CoA:cholesterol O-acyltransferase (ACAT) (Oryctolagus cuniculus, UniProt G1SFD9).
T1 construct: The intestinal mucosa of a white rabbit was homogenized and microsomal fraction was obtained by stepwise centrifugation; from tissue; host or cells: intestinal mucosa of white rabbit, microsomal fraction
T1 sequence (G1SFD9 1-524): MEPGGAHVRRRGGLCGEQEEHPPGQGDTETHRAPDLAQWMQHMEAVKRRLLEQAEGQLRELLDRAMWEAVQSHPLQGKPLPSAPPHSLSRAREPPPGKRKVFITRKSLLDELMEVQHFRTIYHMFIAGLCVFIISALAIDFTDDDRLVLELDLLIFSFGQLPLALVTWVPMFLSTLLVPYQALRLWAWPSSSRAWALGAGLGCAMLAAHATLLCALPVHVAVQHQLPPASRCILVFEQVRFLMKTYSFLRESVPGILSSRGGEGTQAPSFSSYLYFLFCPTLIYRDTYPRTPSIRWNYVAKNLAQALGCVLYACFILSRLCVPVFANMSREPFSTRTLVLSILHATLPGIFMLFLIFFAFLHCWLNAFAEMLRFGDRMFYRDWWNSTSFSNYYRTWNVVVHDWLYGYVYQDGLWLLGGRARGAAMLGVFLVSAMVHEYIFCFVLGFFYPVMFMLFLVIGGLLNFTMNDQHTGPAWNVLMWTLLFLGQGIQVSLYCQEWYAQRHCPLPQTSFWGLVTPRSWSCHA
Put plainly: Inhibitory activity on acyl-CoA:cholesterol O-acyltransferase (ACAT), intestinal mucosa microsomal fraction, [1-14C]oleyl-CoA incorporation into cholesterol esters. The class given is biochemical, white rabbit. The note with it: 0.01 μM; read-out: Inhibition rate %. The procedure:
Inhibitory activity on acyl-CoA:cholesterol Oacyltransferase (ACAT)
The enzyme used in the test was prepared according to the method of Heider et al. [J. Lipid, Res. 24, 1127 (1983)]. The intestinal mucosa of a white rabbit was homogenized and microsomal fraction was obtained by stepwise centrifugation. The microsomal fraction was suspended in 0,154M phosphate buffer (pH 0 7.4) and stored at -80° C. until use.
ACAT activity was determined by a modification of the method of Helgerud et al. [J. Lipid Res. 22, 271 (1981)] by measuring radioactivity incorporated into cholesterol esters from [1-14C]oleyl-CoA, as an indication. As to the ACAT-inhibiting activity of each compound to be tested, the inhibition rate was calculated by the following equation.
Broadly, the inhibition is the share of the control response that was lost under treatment. In the case of `CCc1cccc(CC)c1NC(=O)Nc1sc2ccc(C(C)C)cc2c1-c1ccccc1Cl` [Compound 76, N-[3-(2-Chlorophenyl)-5-isopropyl-1-benzothiophen-2-yl]-N'-(2,6-diethylphenyl)urea], the inhibition at 0.01 µM amounted to 71%.
Regarding `CC(C)c1ccc2sc(NC(=O)Nc3c(C(C)C)cccc3C(C)C)c(-c3ccccc3Cl)c2c1` [Compound 77, N-[3-(2-chlorophenyl)-5-isopropyl-1-benzothiophen-2-yl]-N'-(2,6-diisopropylphenyl)urea], the inhibition at 0.01 µM came to 51.7%.
Still for that read-out and setting: the value for `Cc1cc2sc(NC(=O)Nc3c(C(C)C)cccc3C(C)C)c(-c3ccccc3Cl)c2cc1C` [Compound 81, N-(3-(2-Chlorophenyl)-5,6-dimethyl-1-benzothiophen-2-yl]-N'-(2,6-diisopropylphenyl)urea] was 41.4%.
Regarding `Cc1cc2sc(NC(=O)Nc3c(C)cccc3C(C)C)c(-c3ccccc3Cl)c2cc1C` [Compound 82, N-[3-(2-Chlorophenyl)-5,6-dimethyl-1-benzothiophen-2-yl]-N'-(2-isopropyl-6-methylphenyl)urea], the inhibition at 0.01 µM came out at 67%.
For the compound `Cc1cc2sc(NC(=O)Nc3c(C)cccc3N(C)C)c(-c3ccccc3Cl)c2cc1C` [Compound 83, N-[3-(2-Chlorophenyl)-5,6-dimethyl-1-benzothiophen-2-yl]-N'-(2-dimethylamino-6-methylphenyl)urea], the inhibition at 0.01 µM came out at 81.3%.
As for `Cc1cc2sc(NC(=O)Nc3ccc(F)cc3F)c(-c3ccccc3Cl)c2cc1C` [Compound 84, N-[3-(2-Chlorophenyl)-5,6-dimethyl-1-benzothiophen-2-yl]-N'-(2,4-difluorophenyl)urea], the inhibition at 0.01 µM was found to be 78.6%.
The same measure, in the same setting: with `Cc1cccc(C)c1NC(=O)Nc1sc2cc3c(cc2c1-c1ccccc1Cl)CCC3` [Compound 87, N-[3-(2-Chlorophenyl)-6,7-dihydro-5H-cyclopenta[f][1]benzothiophen-2-yl]-N'-(2,6-dimethylphenyl)urea] the figure was 60.4%; with `CCc1cccc(CC)c1NC(=O)Nc1sc2cc3c(cc2c1-c1ccccc1Cl)CCC3` [Compound 88, N-[3-(2-Chlorophenyl)-6,7-dihydro-5H-cyclopenta[f][1]benzothiophen-2-yl]-N'-(2,6-diethylphenyl)urea], 85.8%.
The same measure, in the same setting: with `CC(C)c1cccc(C(C)C)c1NC(=O)Nc1sc2cc3c(cc2c1-c1ccccc1Cl)CCC3` [Compound 89, N-[3-(2-Chlorophenyl)-6,7-dihydro-5H-cyclopenta[f][1]benzothiophen-2-yl]-N'-(2,6-diisopropylphenyl)urea] the figure was 44.4%.
The same measure, in the same setting: with `Cc1cccc(C(C)C)c1NC(=O)Nc1sc2cc3c(cc2c1-c1ccccc1Cl)CCC3` [Compound 90, N-[3-(2-Chlorophenyl)-6,7-dihydro-5H-cyclopenta[f][1]benzothiophen-2-yl]-N'-(2-isopropyl-6-methylphenyl)urea] the figure was 75.4%; with `Cc1cccc(N(C)C)c1NC(=O)Nc1sc2cc3c(cc2c1-c1ccccc1Cl)CCC3` [Compound 91], 65%.
Consider `O=C(Nc1ccc(F)cc1F)Nc1sc2cc3c(cc2c1-c1ccccc1Cl)CCC3` [Compound 92, N-(3-(2-Chlorophenyl)-6,7-dihydro-5H-cyclopenta[f][1]benzothiophen-2-yl]-N'-(2,4-difluorophenyl)urea], for which the inhibition at 0.01 µM was determined as 81.7%.
On the same count and under the same terms, with `O=C(Nc1sc2cc3c(cc2c1-c1ccccc1Cl)CCC3)Nc1c(F)cccc1F` [Compound 93, N-[3-(2-Chlorophenyl)-6,7-dihydro-5H-cyclopenta[f][1]benzothiophen-2-yl]-N'-(2,6-difluorophenyl)urea] the figure was 69.7%; with `O=C(Nc1sc2cc3c(cc2c1-c1ccccc1Cl)CCC3)Nc1c(F)cc(F)cc1F` [Compound 94, N-[3-(2-Chlorophenyl)-6,7-dihydro-5H-cyclopenta[f][1]benzothiophen-2-yl]-N'-(2,4,6-trifluorophenyl)urea], 76.7%; with `O=C(Nc1sc2cc3c(cc2c1-c1ccccc1Cl)CCC3)Nc1c(Cl)cccc1Cl` [Compound 95, N-[3-(2-Chlorophenyl)-6,7-dihydro-5H-cyclopenta[f][1]benzothiophen-2-yl]-N'-(2,6-dichlorophenyl)urea], 66.4%.
With `CCc1cccc(CC)c1NC(=O)Nc1sc2cc3c(cc2c1-c1ccccc1Cl)CCCC3` [Compound 96, N-[3-(2-Chlorophenyl)-5,6,7,8-tetrahydronaphthono[2,3-b]thiophen-2-yl]-N'-(2,6-diethylphenyl)urea], the inhibition at 0.01 µM was determined as 80.7%.
The same measure, in the same setting: with `Cc1cccc(C(C)C)c1NC(=O)Nc1sc2cc3c(cc2c1-c1ccccc1Cl)CCCC3` [Compound 98, N-[3-(2-Chlorophenyl)-5,6,7,8-tetrahydronaphtho[2,3-b]thiophen-2-yl]-N'-(2-isopropyl-6-methylphenyl)urea] the figure was 66%; with `O=C(Nc1ccc(F)cc1F)Nc1sc2cc3c(cc2c1-c1ccccc1Cl)CCCC3` [Compound 99, N-[3-(2-Chlorophenyl)-5,6,7,8-tetrahydronaphtho[2,3-b]thiophen-2-yl]-N'-(2,4-difluorophenyl)urea], 90.1%.
For the compound `CC(C)c1cccc(C(C)C)c1NC(=O)Nc1sc2ccc([N+](=O)[O-])cc2c1-c1ccc(Cl)cc1Cl` [Compound 100, N-[3-(2,4-Dichlorophenyl)-5-nitro-1-benzothiophen-2-yl]-N'-(2,6-diisopropylphenyl)urea], the inhibition at 0.01 µM was 18.4%.
As to `CCc1cccc(CC)c1NC(=O)Nc1sc2cc(OC)c(OC)cc2c1-c1ccccc1Cl` [Compound 102, N-[3-(2-Chlorophenyl)-5,6-dimethoxy-1-benzothiophen-2-yl]-N'-(2,6-diethylphenyl)urea], the inhibition at 0.01 µM was found to be 43.3%.
Same read-out and setting: with `O=C(Nc1ccc(F)cc1F)Nc1sc2cc3c(cc2c1-c1ccc(Cl)cc1Cl)CCC3` [Compound 107, N-[3-(2,4-Dichlorophenyl)-6,7-dihydro-5H-cyclopenta[f][1]benzothiophen-2-yl]-N'-(2,4-difluorophenyl)urea] the figure was 36.2%; with `Cc1ccccc1-c1c(NC(=O)Nc2c(C)cccc2C(C)C)sc2cc3c(cc12)CCC3` [Compound 111, N-(2-Isopropyl-6-methylphenyl)-N'-[3-(2methylphenyl)-6,7-dihydro-5H-cyclopenta[f][1]benzothiophen-2-yl]urea], 69.2%; with `CCc1cccc(CC)c1NC(=O)Nc1sc2cc3c(cc2c1-c1ccccc1C(F)(F)F)CCC3` [Compound 113, N-(2,6-Diethylphenyl)-N'-[3-(2-trifluoromethylphenyl)-6,7-dihydro-5H-cyclopenta[f][1]-benzothiophen-2-yl]urea], 43.5%.
On to `Cc1ccccc1-c1c(NC(=O)Nc2ccc(F)cc2F)sc2cc3c(cc12)CCCC3` [Compound 119, N-(2,4-Difluorophenyl)-N'-[3-(2-methylphenyl)5,6,7,8-tetrahydronaphtho [2,3-b]thiophen-2-yl]urea], for which the inhibition at 0.01 µM worked out at 79.5%.

Still in this assay, the particulars now being: 1 μM; read-out: Inhibition rate %.
As to `Cc1ccc(S(=O)(=O)n2c(NC(=O)Nc3ccc(F)cc3F)c(-c3ccccc3)c3ccccc32)cc1` [Compound 120, N-(2,4-Difluorophenyl)-N'-[3-phenyl-1-(p-toluenesulfonyl)-3-phenylindole-2-yl]urea], the inhibition at 1 µM is 60.4%.
For the compound `Cc1ccc(S(=O)(=O)n2c(NC(=O)Nc3c(C)cccc3C(C)C)c(-c3ccccc3Cl)c3cc(C)cc(C)c32)cc1` [Compound 121, N-[3-(2-chlorophenyl)-5,7-dimethyl-1-(p-toluenesulfonyl)indole-2-yl]-N'-(2-isopropyl-6-methylphenyl)urea], the inhibition at 1 µM came out at 85.8%.
Take `Cc1ccc(S(=O)(=O)n2c(NC(=O)Nc3ccc(F)cc3F)c(-c3ccccc3Cl)c3cc(C)cc(C)c32)cc1` [Compound 122, N-[3-(2-Chlorophenyl)-5,7-dimethyl-1-(p-toluenesulfonyl)indole-2-yl]-N'-(2,4-difluorophenyl)urea]: the inhibition at 1 µM was found to be 75.4%.
In the case of `Cc1cc(C)c2c(c1)c(-c1ccccc1Cl)c(NC(=O)Nc1ccc(F)cc1F)n2C` [Compound 124, N-[3-(2-Chlorophenyl)-5,7-dimethyl-1-methylindole-2-yl]-N'-(2,4-difluorophenyl)urea], the inhibition at 1 µM turned out to be 81.7%.

These data come from patent USRE36832E, “N-heteroaryl-N'-phenylurea derivatives, their production and use” (Nihon Nohyaku Co., LTD, priority 1993, dated 2000).
